# Structures can show the parent of a compound that is named as a salt.
# Biological target: T1, serotonin 4 receptor (5-HT4) (Cavia porcellus, UniProt O70528)
# T1 construct: from tissue; host or cells: longitudinal muscle strips of guinea pig ileum (Harley guinea pigs)
# Experiment: Stimulating activity on serotonin 4 receptor (twitch response in guinea pig ileum)
# Format: cell-based
# Details: not given
# Method: Stimulating activity on serotonin 4 receptor
# From Harley guinea pigs weighing 250 to 400 g, a section of ileum 10 to 20 cm proximal to the ileocecal junction was removed. Longitudinal muscle strips obtained from the ileum were used for this assay. The preparations were suspended in Krebs' solution at 32 to 34° C., bubbled continuously with 95% O2 and 5% CO2, and subjected to initial tension of about 0.8 g. Responses were recorded isometrically. Twitch responses were evoked by electrical stimulation (0.2 Hz, 1 msec pulse duration). The preparations were stimulated at supramaximal voltage for 2 to 3 hours, and were then allowed to equilibrate for about 1 hour at submaximal voltage. […] The preparations were left for at least 45 minutes before cumulative addition of each agonist.
# The quinolinecarboxylic acid derivatives of the present invention were employed as sample compounds. For comparison, the following compounds were employed. These compounds were diluted by dissolving them in distilled water or in DMSO.
# The data obtained was analyzed by RS1 (BBN Software Product Co.).
# T1 sequence (O70528 whole entry): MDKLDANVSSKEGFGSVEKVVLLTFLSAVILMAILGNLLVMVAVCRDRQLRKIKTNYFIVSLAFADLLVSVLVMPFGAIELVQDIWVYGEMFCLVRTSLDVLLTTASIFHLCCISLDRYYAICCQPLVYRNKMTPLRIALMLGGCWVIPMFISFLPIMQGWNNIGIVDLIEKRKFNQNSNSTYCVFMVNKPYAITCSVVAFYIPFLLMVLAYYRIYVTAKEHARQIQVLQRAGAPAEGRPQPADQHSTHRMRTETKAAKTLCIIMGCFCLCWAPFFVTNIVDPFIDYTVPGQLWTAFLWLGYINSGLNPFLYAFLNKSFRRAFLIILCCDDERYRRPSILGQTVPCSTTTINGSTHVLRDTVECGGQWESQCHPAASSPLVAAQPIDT
row,SMILES,EC50
1,"C=CCN1C2CCC1CC(NC(=O)c1cc3ccccc3n(C(C)C)c1=O)C2 (stereo not drawn) [Compound 1, endo-N-(8-(2-propenyl)-8-azabicyclo[3.2.1]oct-3-yl)-1-isopropyl-2-oxo-1,2-dihydro-3-quinolinecarboxamide]",59.2 nM
2,"CC(C)n1c(=O)c(C(=O)NC2CC3CCC(C2)N3CCO)cc2ccccc21 (stereo not drawn) [Compound 4, Endo-N-(8-(2-hydroxyethyl)-8-azabicyclo[3.2.1]oct-3-yl)-1-isopropyl-2-oxo-1,2-dihydro-3-quinolinecarboxamide]",45.9 nM
3,"CC(C)n1c(=O)c(C(=O)NC2CC3CCC(C2)N3CCCCO)cc2ccccc21 (stereo not drawn) [Compound 6, Endo-N-(8-(4-hydroxybutyl)-8-azabicyclo[3.2.1]oct-3-yl)-1-isopropyl-2-oxo-1,2-dihydro-3-quinolinecarboxamide]",38.5 nM
4,"CC(C)n1c(=O)c(C(=O)NC2CC3CCC(C2)N3CCCCCO)cc2ccccc21 (stereo not drawn) [Compound 7, Endo-N-(8-(5-hydroxypentyl)-8-azabicyclo[3.2.1]oct-3-yl)-1-isopropyl-2-oxo-1,2-dihydro-3-quinolinecarboxamide]",30.8 nM
5,"CC(C)n1c(=O)c(C(=O)NC2CC3CCC(C2)N3CCCCCCO)cc2ccccc21 (stereo not drawn) [Compound 8, Endo-N-(8-(6-hydroxyhexyl)-8-azabicyclo[3.2.1]oct-3-yl)-1-isopropyl-2-oxo-1,2-dihydro-3-quinolinecarboxamide hydrochloride]",62.3 nM
6,"CC(=O)OCCCCCN1C2CCC1CC(NC(=O)c1cc3ccccc3n(C(C)C)c1=O)C2 (stereo not drawn) [Compound 9, Endo-N-(8-(5-acetoxypentyl)-8-azabicyclo[3.2.1]oct-3-yl)-1-isopropyl-2-oxo-1,2-dihydro-3-quinolinecarboxamide hydrochloride]",33 nM
7,"CSCCN1C2CCC1CC(NC(=O)c1cc3ccccc3n(C(C)C)c1=O)C2 (stereo not drawn) [Compound 17, Endo-N-(8-(2-(methylthio)ethyl)-8-azabicyclo[3.2.1]oct-3-yl)-1-isopropyl-2-oxo-1,2-dihydro-3-quinolinecarboxamide]",48 nM
8,"CC(C)n1c(=O)c(C(=O)NC2CC3CCC(C2)N3CCS(=O)(=O)c2ccccc2)cc2ccccc21 (stereo not drawn) [Compound 19, Endo-N-(8-(2-(phenylsulfonyl)ethyl)-8-azabicyclo[3.2.1]oct-3-yl)-1-isopropyl-2-oxo-1,2-dihydro-3-quinolinecarboxamide]",86.6 nM
9,"CC(C)n1c(=O)c(C(=O)NC2CC3CCC(C2)N3CC2CCCCO2)cc2ccccc21 (stereo not drawn) [Compound 22, Endo-N-(8-(tetrahydropyran-2-methyl)-8-azabicyclo[3.2.1]oct-3-yl)-1-isopropyl-2-oxo-1,2-dihydro-3-quinolinecarboxamide]",24 nM
10,"CC(C)n1c(=O)c(C(=O)NC2CC3CCC(C2)N3CC(=O)O)cc2ccccc21 (stereo not drawn) [Compound 26, Endo-N-(8-(carboxymethyl)-8-azabicyclo[3.2.1]oct-3-yl)-1-isopropyl-2-oxo-1,2-dihydro-3-quinolinecarboxamide]",66.1 nM
11,"CCOC(=O)CCCN1C2CCC1CC(NC(=O)c1cc3ccccc3n(C(C)C)c1=O)C2 (stereo not drawn) [Compound 27, Endo-N-(8-(3-(ethoxycarbonyl)propyl)-8-azabicyclo[3.2.1]oct-3-yl)-1-isopropyl-2-oxo-1,2-dihydro-3-quinolinecarboxamide hydrochloride]",19.3 nM
12,"CC(C)n1c(=O)c(C(=O)NC2CC3CCC(C2)N3CCCC(=O)O)cc2ccccc21 (stereo not drawn) [Compound 28, Endo-N-(8-(3-carboxypropyl)-8-azabicyclo[3.2.1]oct-3-yl)-1-isopropyl-2-oxo-1,2-dihydro-3-quinolinecarboxamide]",91.4 nM
13,"CC(=O)CN1C2CCC1CC(NC(=O)c1cc3ccccc3n(C(C)C)c1=O)C2 (stereo not drawn) [Compound 30, Endo-N-(8-(2-oxopropyl)-8-azabicyclo[3.2.1]oct-3-yl)-1-isopropyl-2-oxo-1,2-dihydro-3-quinolinecarboxamide hydrochloride]",11.5 nM
14,"CC(=O)CCCN1C2CCC1CC(NC(=O)c1cc3ccccc3n(C(C)C)c1=O)C2 (stereo not drawn) [Compound 31, Endo-N-(8-(4-oxopentyl)-8-azabicyclo[3.2.1]oct-3-yl)-1-isopropyl-2-oxo-1,2-dihydro-3-quinolinecarboxamide]",52.3 nM
15,"CC(C)n1c(=O)c(C(=O)NC2CC3CCC(C2)N3CCC#N)cc2ccccc21 (stereo not drawn) [Compound 33, Endo-N-(8-(2-cyanoethyl)-8-azabicyclo[3.2.1]oct-3-yl)-1-isopropyl-2-oxo-1,2-dihydro-3-quinolinecarboxamide]",35.8 nM
16,"CC(C)n1c(=O)c(C(=O)NC2CC3CCC(C2)N3CC(N)=O)cc2ccccc21 (stereo not drawn) [Compound 34, Endo-N-(8-carbamoylmethyl-8-azabicyclo[3.2.1]oct-3-yl)-1-isopropyl-2-oxo-1,2-dihydro-3-quinolinecarboxamide]",61.9 nM
17,"C=CCN1C2CCC1CC(OC(=O)c1cc3ccccc3n(C(C)C)c1=O)C2 (stereo not drawn) [Compound 35, endo-8-(2-propenyl)-8-azabicyclo[3.2.1]oct-3-yl 1-isopropyl-2-oxo-1,2-dihydro-3-quinolinecarboxylate hydrochloride]",54.4 nM
18,"CC(C)n1c(=O)c(C(=O)OC2CC3CCC(C2)N3CCO)cc2ccccc21 (stereo not drawn) [Compound 37, Endo-8-(2-hydroxyethyl)-8-azabicyclo[3.2.1]oct-3-yl 1-isopropyl-2-oxo-1,2-dihydro-3-quinolinecarboxylate hydrochloride]",16.1 nM
19,"CC(C)n1c(=O)c(C(=O)OC2CC3CCC(C2)N3CCCO)cc2ccccc21 (stereo not drawn) [Compound 38, Endo-8-(3-hydroxypropyl)-8-azabicyclo[3.2.1]oct-3-yl 1-isopropyl-2-oxo-1,2-dihydro-3-quinolinecarboxylate]",11.9 nM
20,"CC(C)n1c(=O)c(C(=O)OC2CC3CCC(C2)N3CCCCO)cc2ccccc21 (stereo not drawn) [Compound 39, Endo-8-(4-hydroxybutyl)-8-azabicyclo[3.2.1]oct-3-yl 1-isopropyl-2-oxo-1,2-dihydro-3-quinolinecarboxylate hydrochloride]",16.6 nM
21,"CC(C)n1c(=O)c(C(=O)OC2CC3CCC(C2)N3CCCCCO)cc2ccccc21 (stereo not drawn) [Compound 40, Endo-8-(5-hydroxypentyl)-8-azabicyclo[3.2.1]oct-3-yl 1-isopropyl-2-oxo-1,2-dihydro-3-quinolinecarboxylate hydrochloride]",25.5 nM
22,"CC(C)n1c(=O)c(C(=O)O[C@H]2C[C@H]3CC[C@@H](C2)N3CCCCCCO)cc2ccccc21 [Compound 41, Endo-8-(6-hydroxyhexyl)-8-azabicyclo[3.2.1]oct-3-yl 1-isopropyl-2-oxo-1,2-dihydro-3-quinolinecarboxylate hydrochloride]",50.9 nM
23,"COCCN1[C@@H]2CC[C@H]1C[C@@H](OC(=O)c1cc3ccccc3n(C(C)C)c1=O)C2 [Compound 42, Endo-8-(2-methoxyethyl)-8-azabicyclo[3.2.1]oct-3-yl 1-isopropyl-2-oxo-1,2-dihydro-3-quinolinecarboxylate hydrochloride]",18.4 nM
24,"CCOCCN1[C@@H]2CC[C@H]1C[C@@H](OC(=O)c1cc3ccccc3n(C(C)C)c1=O)C2 [Compound 43, Endo-8-(2-ethoxyethyl)-8-azabicyclo[3.2.1]oct-3-yl 1-isopropyl-2-oxo-1,2-dihydro-3-quinolinecarboxylate hydrochloride]",15.2 nM
25,"CCN(CC)CCN1[C@@H]2CC[C@H]1C[C@@H](OC(=O)c1cc3ccccc3n(C(C)C)c1=O)C2 [Compound 44, Endo-8-(2-diethylaminoethyl)-8-azabicyclo[3.2.1]oct-3-yl 1-isopropyl-2-oxo-1,2-dihydro-3-quinolinecarboxylate dihydrochloride]",72.6 nM
26,"CSCCN1[C@@H]2CC[C@H]1C[C@@H](OC(=O)c1cc3ccccc3n(C(C)C)c1=O)C2 [Compound 45, Endo-8-(2-(methylthio)ethyl)-8-azabicyclo[3.2.1]oct-3-yl 1-isopropyl-2-oxo-1,2-dihydro-3-quinolinecarboxylate]",29.5 nM
27,"CC(C)n1c(=O)c(C(=O)O[C@H]2C[C@H]3CC[C@@H](C2)N3CCS(=O)(=O)c2ccccc2)cc2ccccc21 [Compound 46, Endo-8-(2-(phenylsulfonyl)ethyl)-8-azabicyclo[3.2.1]oct-3-yl 1-isopropyl-2-oxo-1,2-dihydro-3-quinolinecarboxylate]",46.5 nM
28,"CC(C)n1c(=O)c(C(=O)O[C@H]2C[C@H]3CC[C@@H](C2)N3CCN2CCOCC2)cc2ccccc21 [Compound 47, Endo-8-(2-morpholinoethyl)-8-azabicyclo[3.2.1]oct-3-yl 1-isopropyl-2-oxo-1,2-dihydro-3-quinoline-carboxylate dihydrochloride]",30.8 nM
29,"CC(C)n1c(=O)c(C(=O)O[C@H]2C[C@H]3CC[C@@H](C2)N3CC2CCCCO2)cc2ccccc21 (stereo partly drawn) [Compound 48, Endo-8-(tetrahydropyran-2-methyl)-8-azabicyclo[3.2.1]oct-3-yl 1-isopropyl-2-oxo-1,2-dihydro-3-quinolinecarboxylate hydrochloride]",55.9 nM

# Same assay, conditions: twitch response in guinea pig ileum; maximum contraction of sample compound = 100%; read-out: ED50 (concentration enhancing the twitch response by 50%)
row,SMILES,EC50
1,"CN1[C@@H]2CC[C@H]1C[C@@H](NC(=O)c1cc3ccccc3[nH]c1=O)C2 [Comparative Compound 2, reference compound]",> 3000 nM
2,"CN1[C@@H]2CC[C@H]1C[C@@H](OC(=O)c1cc3ccccc3[nH]c1=O)C2 [Comparative Compound 3, reference compound]",> 3000 nM
3,"CCCCn1c(=O)c(C(=O)N[C@H]2C[C@H]3CC[C@@H](C2)N3C)c(O)c2ccccc21 [Comparative Compound 4, reference compound]",> 3000 nM

# — patent US5753673A, “Quinolinecarboxylic acid derivatives” (Taisho Pharmaceutical Co., Ltd., priority 1994, dated 1998)
